Tested on: DIO mice (C57Bl6 on high fat diet)
Experiment: GPR120 DIO Mice OGTT Screening
Format: in vivo, mouse
Details: 3 mg/kg, glucose AUC −30 to 90 min, change from vehicle
Experimental: GPR120 DIO Mice OGTT Screening
18-22 week old, C57Bl6 mice on a high fat diet (60% HFD) for 12-16 weeks (average body weight ˜37-41 g) were fasted for 6 hr, with removal of food occurring at 7 am on the morning of the study. The animals were sorted into treatment groups the day before the study by body weight. Animals outside the bounds of ˜30-50 g were left out of the study. The animals had been handled and shammed a total of 5-8 days (1-3 days immediately prior to the study). Glucose (in 1 mL syringes) was drawn up the morning of the study. Test compounds were kept spinning and were only drawn into 1 ml syringes prior to study commencement. […]
Animals were moved into the testing room at ˜9-11 am, to yield them time to acclimate. […] All groups were dosed 30 minutes prior to glucose administration at a dose volume of 10 ml/kg (the dose volume was calculated separately for each individual animal). […]
Thirty minutes after the first dose (with test compound) animals were bled again for a second baseline, or T=0, and immediately dosed with glucose (20% solution; TEKNOVA, 250 ml sterile bottle w/catalogue number G0525) via a PO injection. The exact dose volume for glucose was also calculated separately for each individual animal.
Blood glucose was measured at 15, 30, 45, 60, and 90 minutes post-glucose administration via the snipped tail. […]

## Cc1c(CCC(=O)O)ccc(OCC2=C(c3ccc(Cl)cc3)COCC2)c1C [ID No. 745, 3-[4-[[5-(4-chlorophenyl)-3,6-dihydro-2H-pyran-4-yl]methoxy]-2,3-dimethyl-phenyl]propanoic acid]
  DIO lowering (−30 to 90): −63%
